Reference: US20180057505A1, “BICYCLIC HETEROARYL COMPOUNDS USEFUL AS INHIBITORS OF THE PAR-2 SIGNALING PATHWAY” (VERTEX PHARMACEUTICALS INCORPORATED, priority 2015, published 2018)

Legend:
PAR2 (HT-29 cells) [1] = target: T1, PAR2 (HT-29 cells) (Homo sapiens, UniProt P55085); assay: Ca FLIPR TETRA assay, ANTAGONIST mode, activator 8 μM SLIGKV; type: cell-based; conditions: HT-29 cells, activator 8 μM SLIGKV
T1 construct: host or cells: HT-29
T1 sequence (P55085 26-397): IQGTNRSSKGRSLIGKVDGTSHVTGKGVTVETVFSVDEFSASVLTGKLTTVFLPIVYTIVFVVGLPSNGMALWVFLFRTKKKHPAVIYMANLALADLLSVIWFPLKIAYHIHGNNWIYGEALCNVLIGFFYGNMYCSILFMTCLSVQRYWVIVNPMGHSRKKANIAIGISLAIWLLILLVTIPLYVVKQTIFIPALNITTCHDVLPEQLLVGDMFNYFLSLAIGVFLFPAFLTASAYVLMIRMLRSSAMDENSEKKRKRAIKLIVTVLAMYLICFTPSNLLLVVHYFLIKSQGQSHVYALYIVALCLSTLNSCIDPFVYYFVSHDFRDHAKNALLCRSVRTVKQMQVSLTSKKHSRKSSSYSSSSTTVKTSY
Outline: (§1)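 Antagonist-mode FLIPR Tetra Ca2+ read: dye-loaded HT-29 cells preincubated 30 min at r.t. with compound (first read checks agonism alone), then challenged with final 3.1 U/mL trypsin, 8 μM SLIGKV, 1 U/mL thrombin or 0.6 μM UTP. Cells plated overnight in 1% FBS McCoy's; Calcium 5 loading 45 min 37 °C plus 15 min r.t.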

PAR2 (HT-29 cells) [2] = target: T1, PAR2 (HT-29 cells); assay: Ca FLIPR TETRA assay, ANTAGONIST mode, activator 3.1 U/mL trypsin; type: cell-based; conditions: HT-29 cells, activator 3.1 U/mL trypsin
Outline: as §1

[3] = test system: UTP-stimulated Ca2+ response in HT-29 cells; assay: Ca FLIPR TETRA assay, ANTAGONIST mode, activator 0.6 μM UTP; type: cell-based; conditions: HT-29 cells, activator 0.6 μM UTP
Outline: as §1

[4] = test system: carrageenan induced paw edema; assay: Rat carrageenan-induced paw edema model; type: in vivo; conditions: given 0.5-3 hour before carrageenan
Method: Example 100: In Vivo Pharmacological Evaluation of PAR2 Pathway Inhibitors Subjects and Housing and Rat Carrageenan-Induced Paw Edema Model Male Sprague Dawley rats were housed in groups in a temperature controlled room and were acclimatized in the animal facility for at least three days prior to use. Experiments were performed during the light phase of the cycle. Animals have food and water ad libitum. Peripheral inflammation was induced by intra-plantar administration of 100 ul of a 1% w/volume (in saline) carrageenan solution under isoflurane anesthesia. The degree of swelling was assessed using the plethysmometer at 2-3-4-5-6 h after carrageenan injection. Test compound or vehicle (0.5% MC/0.1% SDS) was systemically administered at the indicated doses in a volume of 5 mL/kg either 0.5-3 hour before carrageenan challenge (Table 4).

[5] = test system: Thrombin-stimulated Ca2+ response in HT-29 cells; assay: Ca FLIPR TETRA assay, ANTAGONIST mode, activator 1 U/mL Thrombin; type: cell-based; conditions: HT-29 cells, activator 1 U/mL Thrombin
Outline: as §1

[6] = Method A: maximal concentration of antagonist 0.1, 1 or 2 μM
[7] = maximal antagonist concentration per Method (A: 0.1, 1 or 2 μM; B: 50 μM)

Row | Structure (SMILES) | IC50 (PAR2 (HT-29 cells) [1]; [6]) [nM] | IC50 (PAR2 (HT-29 cells) [2]; [6]) [nM] | IC50 ([3]; Homo sapiens) [nM] | IC50 ([5]; Homo sapiens) [nM] | IC50 (PAR2 (HT-29 cells) [1]; [7]) [nM] | IC50 (PAR2 (HT-29 cells) [2]; [7]) [nM] | further results
1 | CC1(C)CCC(c2cc(C(C)(C)C)c3oc(C(=O)N4CCN(c5cccc(C(=O)O)n5)CC4(C)C)cc3n2)CC1 [Example I-449] | 0.9 | 1.9 | 660 | > 1010 | – | – | % inhibition ([4]; dose 40 mg/kg): 49%; % inhibition ([4]; dose 100 mg/kg): 73%
2 | CC1(C)CCC(c2cc(C(C)(C)C)c3oc(C(=O)N4CCN(C(=O)[C@H]5CC[C@@](C)(C(=O)O)CC5)CC4(C)C)cc3n2)CC1 [Example I-316] | 0.2 | 0.2 | > 2000 | > 2000 | – | – | % inhibition ([4]; dose 15 mg/kg): 50%; % inhibition ([4]; dose 40 mg/kg): 66%; % inhibition ([4]; dose 100 mg/kg): 81%; % inhibition ([4]; dose 250 mg/kg): 79%
3 | CC(C)c1cc(-c2ccc(F)cc2)nc2cc(C(=O)N3CCN(C(=O)C4(O)CC4)CC3(C)C)oc12 [Example I-70] | – | – | 16000 | 15000 | 17 | 23 | –
4 | CC(C)c1nc(-c2ccc(F)cc2)nc2cc(C(=O)N3CCN(C(=O)[C@H](O)CC(C)(C)C)CC3(C)C)oc12 [Example I-126] | – | – | 22000 | 13000 | 110 | 67 | –
5 | CC(C)(C)c1cc(C2CC3(CCC3)C2)nc2cc(C(=O)N3CCN(C(=O)[C@H]4CNCCO4)CC3(C)C)oc12 [Example I-445] | 260 | 260 | > 2000 | > 2000 | – | – | –
6 | CC(C)(C)c1cc(C2CCC(Cl)(Cl)CC2)nc2cc(C(=O)N3CCNC(=O)C3(C)C)oc12 [Example I-218] | – | – | > 2000 | > 2000 | 36 | 44 | –
7 | CC(C)(C)c1cc(-c2ccc(Cl)c(F)c2)nc2cc(C(=O)N3CCN(c4cc(C(=O)O)ccn4)CC3(C)C)oc12 [Example I-286] | – | – | > 2000 | > 2000 | 1.4 | 2.6 | –
8 | CC(C)(C)c1cc(-c2ccc(Cl)c(F)c2)nc2cc(C(=O)N3CCC(CC(=O)NC#N)CC3(C)C)oc12 (centres unmarked) [Example I-432] | 0.2 | 0.3 | 970 | 1100 | – | – | –
9 | CC(C)C(=O)N1CCN(C(=O)c2cc3nc(-c4ccc(F)cc4)cc(C4(C)CC4)c3o2)C(C)(C)C1 [Example I-46] | – | – | 5300 | 4100 | 7.9 | 7 | –
10 | CC(C)[C@@H](CC(=O)N1CCN(C(=O)c2cc3nc(C4CCC(C)(C)CC4)cc(C(C)(C)C)c3o2)C(C)(C)C1)C(=O)O [Example I-319] | 0.2 | 0.2 | > 2000 | > 2000 | – | – | –
11 | CC(C)(C)c1cc(-c2ccc(C(F)(F)F)cc2)nc2cc(C(=O)N3CCN(C(=O)[C@H]4C[C@@](C)(O)C4)CC3(C)C)oc12 [Example I-158] | – | – | > 1000 | > 1000 | 3.1 | 3.9 | –
12 | CC1(c2cc(-c3ccc(F)cc3)nc3cc(C(=O)N4CCN(C(=O)[C@H]5CCC(=O)O5)CC4(C)C)oc23)CC1 [Example I-33] | – | – | 5800 | 3600 | 94 | 64 | –
13 | Cc1cncc(N2CCN(C(=O)c3cc4nc(-c5ccc(Cl)c(F)c5)cc(C(C)(C)C)c4o3)C(C)(C)C2=O)n1 [Example I-334] | 1.4 | 1.6 | > 2000 | > 2000 | – | – | –
14 | CC(C)c1cc(-c2ccc(F)cc2)nc2cc(C(=O)N3CCN(C(=O)c4nnc[nH]4)CC3(C)C)oc12 [Example I-142] | – | – | > 1000 | > 1000 | 7.2 | 13 | –
15 | CCC(CC)c1cc(-c2ccc(F)cc2)nc2cc(C(=O)N3CCNC(=O)C3(C)C)oc12 [Example I-233] | – | – | > 2000 | > 2000 | 6.2 | 8.1 | –
16 | CC(C)c1cc(-c2ccc(F)cc2)nc2cc(C(=O)N3CCN(C(=O)[C@H](O)CC(C)(C)C)CC3(C)C)oc12 [Example I-18] | – | – | 17000 | 7900 | 1.4 | 1.1 | –

Row | Structure (SMILES) | IC50 (PAR2 (HT-29 cells) [1]; [6]) [nM] | IC50 (PAR2 (HT-29 cells) [2]; [6]) [nM] | IC50 ([3]; Homo sapiens) [nM] | IC50 ([5]; Homo sapiens) [nM] | IC50 (PAR2 (HT-29 cells) [1]; [7]) [nM] | IC50 (PAR2 (HT-29 cells) [2]; [7]) [nM] | further results
17 | CC1(c2cc(-c3ccc(F)cc3)nc3cc(C(=O)N4CCNC(=O)C4(C)C)oc23)CC1 [Example I-25] | – | – | 2700 | 4300 | 14 | 18 | –
18 | CC(C)c1cc(-c2ccc(F)cc2)nc2cc(C(=O)N3CCN(C(=O)C4(O)CCOCC4)C[C@@H]3C)oc12 [Example I-105] | – | – | 15000 | 12000 | 8700 | 7700 | –
19 | CC(C)(C)c1cc(-c2ccc(Cl)cc2)nc2cc(C(=O)N3CCN(c4cncc(C(=O)O)n4)CC3(C)C)oc12 [Example I-463] | 0.7 | 0.9 | 860 | 1010 | – | – | –
20 | CN1CCN(C(=O)c2cc3nc(-c4ccc(Cl)c(F)c4)cc(C(C)(C)C)c3o2)C(C)(C)C1=O [Example I-241] | – | – | > 2000 | > 2000 | 1.7 | 1.6 | –
21 | CC(C)(C)c1cc(-c2ccc(Cl)cc2)nc2cc(C(=O)N3CCN(c4cccnc4)C(=O)C3(C)C)oc12 [Example I-326] | 23 | 38 | > 2000 | > 2000 | – | – | –
22 | CC1(C)CCC(c2cc(C(C)(C)C)c3oc(C(=O)N4CCN(c5cccc(C(=O)O)n5)C(=O)C4(C)C)cc3n2)CC1 [Example I-458] | 8.7 | 18 | 1190 | 1150 | – | – | –
23 | CC(C)(C)c1cc(-c2ccc(Cl)c(F)c2)nc2cc(C(=O)N3CCN(c4ccccn4)CC3(C)C)oc12 [Example I-271] | – | – | > 2000 | > 2000 | 7.4 | 7.8 | –
24 | CC(C)(C)c1cc(-c2ccc(Cl)c(F)c2)nc2cc(C(=O)N3CCN(c4cnccn4)C(=O)C3(C)C)oc12 [Example I-360] | 2.4 | 3.7 | > 2000 | > 2000 | – | – | –
25 | Cc1ccc(C(=O)O)nc1C1CCN(C(=O)c2cc3nc(-c4ccc(Cl)cc4)cc(C(C)(C)C)c3o2)C(C)(C)C1 (centres unmarked) [Example I-397] | 0.6 | 0.6 | – | – | – | – | IC50 [3]: 760 nM; IC50 [5]: > 1010 nM
26 | CC(C)[C@@H](CC(=O)N1CCN(C(=O)c2cc3nc(-c4ccc(Cl)cc4)cc(C(C)(C)C)c3o2)C(C)(C)C1)C(=O)O [Example I-320] | 0.1 | 0.2 | > 2000 | > 2000 | – | – | –
27 | Cc1n[nH]c(C(=O)N2CCN(C(=O)c3cc4nc(C5CC6(CCC6)C5)cc(C(C)(C)C)c4o3)C(C)(C)C2)n1 [Example I-295] | – | – | > 2000 | > 2000 | 7.3 | 22 | –
28 | Cc1n[nH]c(C(=O)N2CCN(C(=O)c3cc4nc(C5CCC(Cl)(Cl)CC5)cc(C(C)(C)C)c4o3)C(C)(C)C2)n1 [Example I-304] | 2 | 2.8 | > 2000 | > 2000 | – | – | –
29 | CC(C)(C)c1cc(C2CC3(CCC3)C2)nc2cc(C(=O)N3CCN(C(=O)[C@H]4CC[C@](C)(C(=O)O)CC4)CC3(C)C)oc12 [Example I-298] | 14 | 18 | 510 | 510 | – | – | –
30 | CN(CC(=O)O)CC(=O)N1CCN(C(=O)c2cc3nc(-c4ccc(Cl)cc4)cc(C(C)(C)C)c3o2)C(C)(C)C1 [Example I-347] | 290 | 500 | > 2000 | > 2000 | – | – | –
31 | CC(C)(C)c1cc(-c2ccc(F)cc2)nc2cc(C(=O)N3CCN(S(=O)(=O)c4c[nH]cn4)CC3(C)C)oc12 [Example I-201] | – | – | > 1000 | > 1000 | 4 | 7 | –
32 | CC1(C)CCC(c2cc(C(C)(C)C)c3oc(C(=O)N4CCN(c5ccnc(C(=O)O)n5)CC4(C)C)cc3n2)CC1 [Example I-414] | 8.5 | 16 | > 2000 | > 2000 | – | – | –
